Laboratory results taken from the supplement of paper PMC8671470.
± gives the standard deviation of the averaged measurements.

What was measured:
Conditions in all cases: 72 h
SHI-1 [1] = assay: cell viability (% survival relative to DMSO control, bortezomib = 0%); higher = less cytotoxic
Summary of the method: (§1)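 Seeding density for each of the 10 AML and 5 CML cell lines was titrated to the linear growth range. Cells went into 384-well plates pre-printed in duplicate with compounds at 1, 10, 100, 1000 or 10000 nM and were held for 72 h at 37 °C with 5% CO2. CellTiter-Glo luminescence then provided the readout. Percent survival is expressed relative to vehicle at 100% and a 10 µM positive control at 0%, averaged over duplicates.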

HL-60 [2] = assay: as above
Summary of the method: as §1

K-562 [3] = assay: as above
Summary of the method: as §1

KG-1 [4] = assay: as above
Summary of the method: as §1

ML-2 [5] = assay: as above
Summary of the method: as §1

HEL [6] = assay: as above
Summary of the method: as §1

Mono-Mac-6 [7] = assay: as above
Summary of the method: as §1

KCL-22 [8] = assay: as above
Summary of the method: as §1

LAMA-84 [9] = assay: as above
Summary of the method: as §1

MV4-11 [10] = assay: as above
Summary of the method: as §1

BV-173 [11] = assay: as above
Summary of the method: as §1

HL-60 [12] = assay: cell viability (% survival relative to DMSO control); higher = less cytotoxic
Summary of the method: (§2)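 For each screen, HL-60 cells in RPMI 1640 with 10% FBS carried either DMSO or 100 nM of one of three metabolic inhibitors while the full library was applied at five tenfold concentrations, 1–10,000 nM, in duplicate. Plates were 384-well and were kept 72 h at 37 °C, 5% CO2. Viability, measured by CellTiter-Glo, was normalised to wells with DMSO and with 10 μM proteasome inhibitor. Where area under the curve appears, it was fitted by four-parameter log-logistic models in drc and PharmacoGx.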

HL-60 [13] = assay: area under dose-response curve (viability, 1 nM-10 uM) (fraction (0-1)); higher = more sensitive
Summary of the method: as §2

SHI-1 [14] = tested on: SHI-1
Summary of the method: (§3)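 The IC50 was derived from log-logistic dose–response fitting. Each of fifteen myeloid leukaemia cell lines, seeded in RPMI 1640 within its linear growth range, was exposed in 384-well plates to five tenfold doses (1 to 10,000 nM) in duplicate for 72 h at 37 °C and 5% CO2. Luminescent ATP viability readings were normalised to vehicle and to a positive control at 10 µM before four-parameter curve fitting.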

HL-60 [15] = tested on: HL-60
Summary of the method: as §3

K-562 [16] = tested on: K-562
Summary of the method: as §3

KU-812 = tested on: KU-812
Summary of the method: as §3

KG-1 [17] = tested on: KG-1
Summary of the method: as §3

ML-2 [18] = tested on: ML-2
Summary of the method: as §3

HEL [19] = tested on: HEL
Summary of the method: as §3

Mono-Mac-6 [20] = tested on: Mono-Mac-6
Summary of the method: as §3

KCL-22 [21] = tested on: KCL-22
Summary of the method: as §3

LAMA-84 [22] = tested on: LAMA-84
Summary of the method: as §3

THP-1 = tested on: THP-1
Summary of the method: as §3

MV4-11 [23] = tested on: MV4-11
Summary of the method: as §3

NOMO-1 = tested on: NOMO-1
Summary of the method: as §3

BV-173 [24] = tested on: BV-173
Summary of the method: as §3

MOLM-13 = tested on: MOLM-13
Summary of the method: as §3

O=C(c1c2ccccc2cc2ccccc12)N1CCC(N2CCC[C@@H](C(=O)N3CCOCC3)C2)CC1
Conditions	area under dose-response curve, co-treatment: AZD3965 100 nM	area under dose-response curve, co-treatment: DMSO vehicle	area under dose-response curve, co-treatment: GSK2194069 100 nM	area under dose-response curve, co-treatment: pictilisib 100 nM	cell viability, 1 nM [%]	cell viability, 10 nM [%]	cell viability, 100 nM [%]	cell viability, 1000 nM [%]	cell viability, 10000 nM [%]
BV-173 [11]	–	–	–	–	111	108	118	86.5	70.9
HEL [6]	–	–	–	–	106	108	110	77.3	94.7
HL-60 [2]	–	–	–	–	104	69.9	118	59.2	41.5
HL-60 [13]	< 0.0301	< 0.0301	< 0.0301	< 0.0301	–	–	–	–	–
K-562 [3]	–	–	–	–	112	106	119	94.9	75.7
KCL-22 [8]	–	–	–	–	107	108	118	99.6	78.3
KG-1 [4]	–	–	–	–	110	102	111	94	85.6
LAMA-84 [9]	–	–	–	–	109	108	105	94.5	86.5
ML-2 [5]	–	–	–	–	126	118	119	98.5	86.4
MV4-11 [10]	–	–	–	–	133	110	97.3	78.8	62.3
Mono-Mac-6 [7]	–	–	–	–	101	109	93.4	89.1	75.8
SHI-1 [1]	–	–	–	–	110	96.3	107	101	90

cell viability [%], HL-60 [12]
Conditions	0.001 µM	0.01 µM	0.1 µM	1 µM	10 µM
co-treatment: AZD3965 100 nM	93.6 ± 7.8	96.9 ± 4.1	102 ± 0.61	101 ± 3.2	83.4 ± 2.8
co-treatment: DMSO vehicle	103 ± 4	100 ± 2.3	105.5 ± 0.56	101 ± 3.9	94.5 ± 2
co-treatment: GSK2194069 100 nM	92.4 ± 5.2	95.1 ± 1.6	98.29 ± 0.17	122 ± 30	95.7 ± 2.4
co-treatment: pictilisib 100 nM	93.4 ± 20	100 ± 17	103 ± 1.5	98.8 ± 13	78.8 ± 1.9

Conditions	IC50 (cell viability) [µM]
BV-173 [24]	> 10
HEL [19]	> 10
HL-60 [15]	1.81
K-562 [16]	> 10
KCL-22 [21]	> 10
KG-1 [17]	> 10
KU-812	> 10
LAMA-84 [22]	> 10
ML-2 [18]	> 10
MOLM-13	2.77
MV4-11 [23]	8.82
Mono-Mac-6 [20]	> 10
NOMO-1	> 10
SHI-1 [14]	> 10
THP-1	> 10

c1ccc2nc(-c3nnc4sc(-c5cnccn5)nn34)ccc2c1
Conditions	area under dose-response curve, co-treatment: AZD3965 100 nM	area under dose-response curve, co-treatment: DMSO vehicle	area under dose-response curve, co-treatment: GSK2194069 100 nM	area under dose-response curve, co-treatment: pictilisib 100 nM	cell viability, 1 nM [%]	cell viability, 10 nM [%]	cell viability, 100 nM [%]	cell viability, 1000 nM [%]	cell viability, 10000 nM [%]
BV-173 [11]	–	–	–	–	103	105	103	100	96.1
HEL [6]	–	–	–	–	95.3	96	93.7	95.1	99.4
HL-60 [2]	–	–	–	–	108	100	102	67.9	103
HL-60 [13]	< 0.0301	< 0.0301	< 0.0301	< 0.0301	–	–	–	–	–
K-562 [3]	–	–	–	–	110	105	107	108	105
KCL-22 [8]	–	–	–	–	97.3	109	109	105	95.7
KG-1 [4]	–	–	–	–	110	107	99.4	91.9	84.6
LAMA-84 [9]	–	–	–	–	100	104	105	95.4	94.1
ML-2 [5]	–	–	–	–	108	122	111	86.5	110
MV4-11 [10]	–	–	–	–	96.4	107	108	88	111
Mono-Mac-6 [7]	–	–	–	–	111	108	108	91.1	98.5
SHI-1 [1]	–	–	–	–	108	107	116	91.9	98

cell viability [%], HL-60 [12]
Conditions	0.001 µM	0.01 µM	0.1 µM	1 µM	10 µM
co-treatment: AZD3965 100 nM	98.9 ± 0.82	98.75 ± 0.27	100.9 ± 0.44	98.9 ± 3.1	98.4 ± 2
co-treatment: DMSO vehicle	97.4 ± 1.7	100 ± 1.4	98.61 ± 0.72	98 ± 1.4	102 ± 2.2
co-treatment: GSK2194069 100 nM	102 ± 7.4	101 ± 5	100 ± 5.6	93.01 ± 0.7	95.9 ± 5.9
co-treatment: pictilisib 100 nM	105 ± 5.6	103 ± 4.5	103 ± 8.9	107 ± 5.1	100.1 ± 0.31

Conditions	IC50 (cell viability) [µM]
BV-173 [24]	> 10
HEL [19]	> 10
HL-60 [15]	> 10
K-562 [16]	> 10
KCL-22 [21]	> 10
KG-1 [17]	> 10
KU-812	> 10
LAMA-84 [22]	> 10
ML-2 [18]	> 10
MOLM-13	> 10
MV4-11 [23]	> 10
Mono-Mac-6 [20]	> 10
NOMO-1	> 10
SHI-1 [14]	> 10
THP-1	> 10

CC(C)(CS(=O)(=O)[O-])NC(=O)CC[N+](C)(C)CCO
Conditions	area under dose-response curve, co-treatment: AZD3965 100 nM	area under dose-response curve, co-treatment: DMSO vehicle	area under dose-response curve, co-treatment: GSK2194069 100 nM	area under dose-response curve, co-treatment: pictilisib 100 nM	cell viability, 1 nM [%]	cell viability, 10 nM [%]	cell viability, 100 nM [%]	cell viability, 1000 nM [%]	cell viability, 10000 nM [%]
BV-173 [11]	–	–	–	–	88.4	97.7	91.6	91.3	113
HEL [6]	–	–	–	–	101	106	93.8	98.8	104
HL-60 [2]	–	–	–	–	116	118	97.8	78.4	97.8
HL-60 [13]	< 0.0301	< 0.0301	< 0.0301	< 0.0301	–	–	–	–	–
K-562 [3]	–	–	–	–	108	88.5	105	97.8	105
KCL-22 [8]	–	–	–	–	107	103	94.1	88.8	117
KG-1 [4]	–	–	–	–	97.4	114	93.6	94.4	118
LAMA-84 [9]	–	–	–	–	88.8	96.6	100	91.3	106
ML-2 [5]	–	–	–	–	95.4	109	89.4	88.9	115
MV4-11 [10]	–	–	–	–	104	101	99.8	95.6	114
Mono-Mac-6 [7]	–	–	–	–	86.8	105	90.1	91.6	105
SHI-1 [1]	–	–	–	–	107	115	96.8	91.8	126

cell viability [%], HL-60 [12]
Conditions	0.001 µM	0.01 µM	0.1 µM	1 µM	10 µM
co-treatment: AZD3965 100 nM	101 ± 5.7	89.5 ± 25	116 ± 26	122 ± 30	94.1 ± 3.8
co-treatment: DMSO vehicle	95.9 ± 6.8	98.4 ± 11	107.3 ± 0.43	106 ± 3.5	100 ± 1.9
co-treatment: GSK2194069 100 nM	105 ± 11	95.2 ± 10	102 ± 1.7	111 ± 12	99.7 ± 2.9
co-treatment: pictilisib 100 nM	102 ± 6.8	79.9 ± 30	107 ± 5	115 ± 23	99.9 ± 7.4

Conditions	IC50 (cell viability) [µM]
BV-173 [24]	> 10
HEL [19]	> 10
HL-60 [15]	> 10
K-562 [16]	> 10
KCL-22 [21]	> 10
KG-1 [17]	> 10
KU-812	> 10
LAMA-84 [22]	> 10
ML-2 [18]	> 10
MOLM-13	> 10
MV4-11 [23]	> 10
Mono-Mac-6 [20]	> 10
NOMO-1	> 10
SHI-1 [14]	> 10
THP-1	> 10
